Measured values as given in the COVID Moonshot data (paper PMC7615835).
“And” between values parts separate entries of the source, which are not always exact repeats. Equal values may be shown once.

Each compound was assayed against SARS-CoV-2 Main Protease (SARS-CoV-2) (UniProt P0DTD1).

`N#Cc1cnn(-c2ccc([N+](=O)[O-])cc2)c1Nc1cc(Cl)cc(CC(=O)Nc2cncc3ccccc23)c1` and `Cc1ccc(Nc2cc(Cl)cc(CC(=O)Nc3cncc4ccccc34)c2)cc1I` are within 1.5-fold of each other in IC50: 1840 nM for the first, 2070 nM for the second.

`Cc1c(Cl)cccc1S(=O)(=O)N(Cc1ccc(F)cc1)c1ccc2[nH]c(=O)[nH]c2c1` and `CCC(C)c1ccc(C(NCC(=O)Nc2ccc3[nH]c(=O)[nH]c3c2)c2cccs2)cc1` (stereo not given) cannot be ordered by IC50: > 99500 nM for the first, > 99500 nM for the second.

`Nc1nn(C(=O)Cc2cccc(Cl)c2)c2cccc(F)c12` and `O=C(Cc1cccc(Cl)c1)N1CC(O)Cc2ccccc21` (stereo not given) cannot be ordered by IC50: > 99500 nM for the first, > 99500 nM for the second.

Going from `O=C(Cc1cccc(Cl)c1)Nc1cncc2sccc12` to `O=C(Cc1cccc(Cl)c1)Nc1cncc2oncc12`, the IC50 rises from 425 nM to 50600 nM (120-fold).

First: COc1ccc2c(NC(=O)Cc3cccc(Cl)c3)[nH]nc2c1
Second: O=C(Cc1cccc(Cl)c1)Nc1cccnc1
The IC50 of the first is higher: > 99500 nM for the first, 53700 nM for the second.

First: CC(=O)N1CCc2ccc(Cl)cc2C1C(=O)Nc1cncc2ccccc12 (stereo not given)
Second: O=C(Nc1cncc2ccccc12)[C@H]1COc2ccc(Cl)cc2C1 (stereo in doubt)
The IC50 of the first is lower: 2850 nM for the first, > 99500 nM for the second. The first is the more potent here.

Going from `CC(C)(C)c1ccc(N(C(=O)c2cocn2)C(C(=O)NCCc2cccc(F)c2)c2c(N3CCOCC3)nc3ccccn3c2=O)cc1` (stereo not given) to `CC(C)(C)c1ccc(N(C(=O)c2cocn2)C(C(=O)NCCc2cccc(F)c2)c2ccnnc2)cc1` (stereo not given), the IC50 falls from > 99500 nM to 2050 nM. The second is the more potent here.

First: O=C(c1cc(=O)[nH]c2ccccc12)N1CCN(c2ccc(F)cc2)CC1
Second: O=C(Cc1cc(Cl)cc(N2CCN(c3ccc(O)cc3)CC2)c1)Nc1cncc2ccccc12
The IC50 of the first is 7.5-fold higher: 16500 nM for the first, 2190 nM for the second. The second is the more potent here.

Going from `CN(C)S(=O)(=O)N1Cc2ccc(Cl)cc2C(C(=O)Nc2cnccc2C(F)(F)F)C1` (stereo not given) to `CCS(=O)(=O)Nc1ccc2c(NC(=O)C3CN(S(=O)(=O)CC4(C#N)CC4)Cc4ccc(Cl)cc43)cncc2c1` (stereo not given), the IC50 falls from 28800 nM to < 50 nM. The second is the more potent here.

Going from `CC(CNC(=O)c1cnc2ccccn12)Nc1nc2ccccc2o1` (stereo not given) to `O=C(Nc1cnc2ccccn12)C1CCOc2ccc(Cl)cc21` (stereo not given), the IC50 falls from > 99500 nM to 3260 nM.

Compared with `O=C(NCCc1cccc(F)c1)C(c1cccnc1)N(C(=O)c1cocn1)C1CC2CCCC2C1` (stereo not given), `COc1ccc(N(C(=O)c2cocn2)C(C(=O)NCCc2cccc(F)c2)c2cccnc2)cc1` (stereo not given) is lower in IC50: > 99500 nM for the first, 22200 nM for the second. The second is the more potent here.

`O=C(Nc1cncn1-c1cccnc1)C1CCOc2ccc(Cl)cc21` (stereo not given) and `O=C(Nc1[nH]nc2cccc(F)c12)C1CCOc2ccc(Cl)cc21` (stereo not given) cannot be ordered by IC50: > 99500 nM for the first, > 99500 nM for the second.

`O=C(Nc1cncc2ccccc12)C1CCOc2c(O)cc(Cl)cc21` (stereo not given) and `Cn1nncc1C(=O)N1Cc2ccc(Cl)cc2C(C(=O)Nc2cncc3ccccc23)C1` (stereo not given) are within 1.5-fold of each other in IC50: 579 nM for the first, 397 nM for the second.

Going from `CN(C)C(=O)COCC(=O)NC(C(=O)Nc1cncc2ccccc12)c1cccc(Cl)c1` (stereo not given) to `CC(=O)N(c1ccc(N)cc1)c1cc(Cl)cc(CC(=O)Nc2cncc3ccccc23)c1`, the IC50 falls from 5410 nM to 2320 nM (2.3-fold). The second is the more potent here.

Going from `CS(=O)(=O)c1ccc2c(NC(=O)C3CN(CC(=O)NC4CC4)C(=O)c4ccc(Cl)cc43)cncc2c1` (stereo not given) to `O=C(CN1CC(C(=O)Nc2cncc3ccccc23)c2cc(Cl)ccc2C1=O)NC1CCC1` (stereo not given), the IC50 falls from 214 nM to 129 nM (1.7-fold). The second is the more potent here.

`Cc1cccc(NC(=O)[C@@H](c2ccccc2)N2Cc3ccccc3C2=O)n1` (stereo in doubt) and `O=C(Nc1ccncc1)[C@@H](c1ccccc1)N1Cc2ccccc2C1=O` (stereo in doubt) cannot be ordered by IC50: > 99500 nM for the first, > 99500 nM for the second.

`Clc1cccc2c1OCCC2Nc1ncccn1` (stereo not given) and `CCS(=O)(=O)c1c(Cl)cccc1CNC(c1cccc(F)c1)C1CC1` (stereo not given) cannot be ordered by IC50: > 99500 nM for the first, > 99500 nM for the second.

`O=C(Nc1ccc(F)cc1)[C@@H]1CN(C(=O)CCl)CCN1S(=O)(=O)c1ccsc1` (stereo in doubt) and `CC(C)C[C@@H]1CN(C(=O)CCl)CCN1Cc1cccc(Cl)c1` (stereo in doubt) are within 1.5-fold of each other in IC50: 593 nM for the first, 784 nM for the second.

Going from `O=C(Cc1cc(Cl)cc(N(C(=O)c2ccccc2)C2CCNCC2)c1)Nc1cncc2ccccc12` to `O=C(Cc1cc(Cl)cc(N2CCC(Cc3ccccc3)CC2)c1)Nc1cncc2ccccc12`, the IC50 rises from 2140 nM to 3350 nM (1.6-fold).

Going from `Cc1ccncc1NC(=O)Cc1cc(Cl)cc(OCCN2CCOCC2C)c1` (stereo not given) to `C[C@H]1CN(C(=O)OC(C)(C)C)CCN1c1cc(Cl)cc(CC(=O)Nc2cncc3ccccc23)c1` (stereo in doubt), the IC50 falls from > 99500 nM to 2190 nM.

`Cc1cc(Nc2cc(Cl)cc(CC(=O)Nc3cncc4ccccc34)c2)cc(C)c1Br` and `CN1CCN(c2ccccc2Nc2cc(Cl)cc(CC(=O)Nc3cncc4ccccc34)c2)CC1` are within 1.5-fold of each other in IC50: 2140 nM for the first, 2090 nM for the second.

Going from `O=C(c1ccnn1C1CC1)N1Cc2ccc(Cl)cc2C2(CCN(c3cncc4ccccc34)C2=O)C1` (stereo not given) to `CN(CC#N)S(=O)(=O)N1Cc2ccc(Cl)cc2C2(CCN(c3cncc4ccccc34)C2=O)C1` (stereo not given), the IC50 rises from 163 nM to 407 nM (2.5-fold).

`CC(C)(COP(=O)(O)OP(=O)(O)OC[C@H]1O[C@@H](n2cnc3c(N)ncnc32)[C@H](O)[C@@H]1OP(=O)(O)O)[C@@H](O)C(=O)NCCC(=O)NCCSC(=O)CCC(=O)O` (stereo in doubt) and `CC(C)(C)c1ccc(N(C(=O)c2ccco2)C(C(=O)NCCc2cccc(F)c2)c2[nH]nc3ccccc23)cc1` (stereo not given) cannot be ordered by IC50: > 99000 nM for the first, > 99500 nM for the second.

`O=C(Nn1cnc2ccccc21)C(Cc1cccc(Cl)c1)c1ccc(N2CCOCC2)cc1` (stereo not given) and `CN(C)c1ccc(C(Cc2ccsc2)C(=O)Nn2cnc3ccccc32)cc1` (stereo not given) cannot be ordered by IC50: > 99500 nM for the first, > 99500 nM for the second.

First: C=CC(=O)N(c1ccc(C(C)(C)C)cc1)C(C(=O)NCCc1cccc(F)c1)c1cncc(Cl)c1 (stereo not given)
Second: CN1CCn2nc(C(=O)N(c3ccc(C(C)(C)C)cc3)C(C(=O)NCCc3cccc(F)c3)c3cccnc3)cc2S1(=O)=O (stereo not given)
The IC50 of the first is lower: 11500 nM for the first, > 99500 nM for the second. The first is the more potent here.

`Cc1ccc(NCc2nnc3n(C)c(=O)c4ccccc4n23)cc1C` and `Cn1cc(NC(=O)Cc2cccc(Cl)c2)c2ccccc2c1=O` cannot be ordered by IC50: > 99500 nM for the first, > 99500 nM for the second.

`C=CC(=O)NCC(=O)N(Cc1ccccc1)C[C@H](O)c1cccs1` (stereo in doubt) and `O=C(Cc1cccc(C(F)(F)F)c1)Nc1cnccc1C(=O)O` cannot be ordered by IC50: > 99500 nM for the first, > 99500 nM for the second.

First: CC(C)CCN1C(=O)C(=O)c2cc(Br)ccc21
Second: CNC(=O)CN1CC2(CCN(c3cncc4cc(F)ccc34)C2=O)c2cc(Cl)ccc2C1=O (stereo not given)
The IC50 of the first is higher: > 99500 nM for the first, 426 nM for the second.

`O=C(Cc1cc(Cl)cc(N2CCC(Oc3ccccc3)CC2)c1)Nc1cncc2ccccc12` and `O=C(Cc1cc(Cl)cc(N2CC=C(c3ccccc3)CC2)c1)Nc1cncc2ccccc12` are within 1.5-fold of each other in IC50: 1730 nM for the first, 1660 nM for the second.

First: Cc1nc2ccc(N(C(=O)c3cnc[nH]3)C(C(=O)NCCc3cccc(F)c3)c3cccnc3)cc2o1 (stereo not given)
Second: COc1ccc(N(Cc2cccc(Cl)c2)C(=O)Cn2nnc3ccccc32)cc1
The IC50 of the first is higher: > 99000 nM for the first, 1140 nM for the second.

First: COc1c(O[C@@H]2O[C@H](CO)[C@@H](O)[C@H](O)[C@H]2O)cc2oc(-c3ccc(O)cc3)cc(=O)c2c1O (stereo in doubt)
Second: CNC(=O)CN1C[C@@H](C(=O)Nc2cncc3cc(Cl)ccc23)c2cc(Cl)ccc2C1=O (stereo in doubt)
The IC50 of the first is higher: > 99500 nM for the first, 939 nM for the second. The second is the more potent here.

Compared with `CC1C(=O)NCCN1C(=O)CCCc1c[nH]c2ccccc12` (stereo not given), `O=C(Cc1cc(Cl)cc(N2CCN(C(=O)C3CC3)CC2)c1)Nc1cncc2ccccc12` is lower in IC50: > 99500 nM for the first, 2010 nM for the second.

Going from `Cc1ccncc1NC(=O)CN1CCCCC1` to `NC(=O)C12COC(CNC(=O)CC3(C(=O)Nc4cncc5ccccc45)CCOc4ccc(Cl)cc43)(C1)C2` (stereo not given), the IC50 falls from > 99500 nM to 9050 nM.

First: Cc1cc(C(F)(F)F)nc2n[nH]c(NC(=O)C3CCOc4ccc(Cl)cc43)c12 (stereo not given)
Second: NCc1cn(CC(=O)N(Cc2ccsc2)c2ccc(-n3cnnc3)cc2)nn1
The IC50 of the first is lower: 26000 nM for the first, > 99500 nM for the second. The first is the more potent here.

For `O=C(CCl)N1CCN(S(=O)(=O)c2cccs2)CC1`, the IC50 was 2070 nM and 2260 nM.
With `CSC1=C(C#N)C2(CCCCC2)C(C#N)=C(NC(=O)CCl)N1` the IC50 was 745 nM and 1750 nM.
